Among the test systems are UACC-62 melanoma; SW-620 colon; A498 renal; T-47D breast; HS 578T breast; SF-295 CNS; HCT-116 colon; MALME-3M melanoma; NCI/ADR-RES ovarian; LOX IMVI melanoma.
What all share (assay): growth of human tumour cells (NCI), 48 h

This note sets out measurements from PubChem BioAssay (NCI).

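Briefly, cells in 96-well plates were exposed to five compound concentrations for 48 h, and endpoints were estimated by linear interpolation. TGI: total growth inhibition.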

In the case of `CCOC(=O)/C(C#N)=C/N(CC)/N=C/c1ccccc1`, the TGI with UACC-62 melanoma, in the experiment on SW-620 colon, with A498 renal, in the experiment with T-47D breast, in the experiment with HS 578T breast and in the experiment on SF-295 CNS was above 100 µM in each case. In addition, the TGI with HCT-116 colon, in the experiment on MALME-3M melanoma and in the experiment with NCI/ADR-RES ovarian was above 100 µM in each case.
On to `O=C(/C=C/c1ccco1)c1cccc(C(=O)/C=C/c2ccco2)n1`, for which the TGI in the experiment on UACC-62 melanoma is above 100 µM; in the experiment with SW-620 colon it was 10.4 µM; in the experiment on LOX IMVI melanoma it was 5.37 µM; with A498 renal, above 100 µM; with T-47D breast, above 100 µM; with HS 578T breast it was above 28.4 µM. Moreover, the TGI with SF-295 CNS is above 100 µM; with HCT-116 colon, 18.5 µM; with MALME-3M melanoma, above 100 µM; in the experiment with NCI/ADR-RES ovarian, above 73.3 µM.
Consider `O=C1CC2(CCNCC2)C(=O)N1N1CCOCC1`, for which the TGI in the experiment with UACC-62 melanoma, in the experiment on SW-620 colon, in the experiment on LOX IMVI melanoma, in the experiment on A498 renal, with T-47D breast and in the experiment with HS 578T breast was above 100 µM in each case. Moreover, the TGI with SF-295 CNS, in the experiment on HCT-116 colon, with MALME-3M melanoma and in the experiment on NCI/ADR-RES ovarian was above 100 µM in each case.
In the case of `C=C1CC(Cn2cc(Br)c(=O)[nH]c2=O)(c2ccc(-c3ccccc3)cc2)OC1=O` (stereo not given), the TGI was 2.45 µM in the experiment on UACC-62 melanoma; 1.58 µM with SW-620 colon; 2.61 µM in the experiment on LOX IMVI melanoma; 2.33 µM in the experiment on A498 renal; 4.87 µM in the experiment with T-47D breast; above 20.5 µM in the experiment with HS 578T breast. Also, the TGI in the experiment with SF-295 CNS was 18.5 µM; with HCT-116 colon, 1.32 µM; in the experiment on MALME-3M melanoma, 3.06 µM; with NCI/ADR-RES ovarian it was 4.82 µM.
Turning to `CCCCCCOP(=O)(OCCCCCC)OC(C(=O)OC)C(F)(F)F` (stereo not given), the TGI in the experiment on UACC-62 melanoma, in the experiment with SW-620 colon, in the experiment on LOX IMVI melanoma, in the experiment with T-47D breast, with HS 578T breast and in the experiment with SF-295 CNS was above 100 µM in each case. The TGI in the experiment with HCT-116 colon, in the experiment on MALME-3M melanoma and with NCI/ADR-RES ovarian was above 100 µM throughout.
On to `CC(=O)O[C@H]1C(=O)N(c2cc3c4ccccc4ccc3c3ccccc23)[C@@H]1c1ccccc1`, for which the TGI in the experiment on UACC-62 melanoma came out at 24 µM; in the experiment on LOX IMVI melanoma, 33.1 µM; in the experiment with A498 renal it was 89.6 µM; with T-47D breast, 98.6 µM; with HS 578T breast, 25.1 µM; in the experiment on SF-295 CNS it was 53.5 µM. Moreover, the TGI in the experiment on HCT-116 colon is 14.4 µM; with MALME-3M melanoma, 54.1 µM; in the experiment on NCI/ADR-RES ovarian, 29.5 µM.
For `CC12CC(c3ccccc3O1)C(C(=O)Nc1cccc(F)c1)C(=O)N2` (stereo not given), the TGI with UACC-62 melanoma is above 100 µM; in the experiment with SW-620 colon, above 100 µM; in the experiment with LOX IMVI melanoma, above 100 µM; in the experiment with A498 renal, above 100 µM; in the experiment with T-47D breast, 89.2 µM; in the experiment with HS 578T breast, above 100 µM. The TGI with SF-295 CNS was above 100 µM; in the experiment on HCT-116 colon it was above 100 µM; with MALME-3M melanoma it was above 100 µM; with NCI/ADR-RES ovarian, 81.9 µM.
Regarding `O=CNNC(=O)Nc1ccc(Cl)cc1`, the TGI with UACC-62 melanoma is above 100 µM; in the experiment on SW-620 colon, above 100 µM; in the experiment with A498 renal, 97.6 µM; in the experiment on T-47D breast it was above 100 µM; with HS 578T breast, above 100 µM; in the experiment on SF-295 CNS, above 100 µM. Also, the TGI in the experiment with HCT-116 colon, in the experiment on MALME-3M melanoma and with NCI/ADR-RES ovarian was above 100 µM throughout.
For `O=C(c1ccco1)C1CC(c2ccc3ccccc3c2O)=NN1c1ccc([N+](=O)[O-])cc1[N+](=O)[O-]` (stereo not given), the TGI is above 100 µM in the experiment on UACC-62 melanoma; above 100 µM in the experiment with SW-620 colon; above 100 µM in the experiment on A498 renal; above 100 µM with T-47D breast; 66.6 µM in the experiment on HS 578T breast; above 100 µM in the experiment with SF-295 CNS. Moreover, the TGI in the experiment with HCT-116 colon was above 100 µM; in the experiment on MALME-3M melanoma, above 100 µM; with NCI/ADR-RES ovarian, 75.4 µM.
As to `O=S1(=O)CCN(c2ccccc2CC(c2c[nH]c3ccccc23)c2c[nH]c3ccccc23)CC1`, the TGI in the experiment on UACC-62 melanoma was 18.9 µM; with SW-620 colon, 21.1 µM; in the experiment on LOX IMVI melanoma, 11.6 µM; in the experiment on A498 renal, 39.9 µM; in the experiment with T-47D breast, above 100 µM; with HS 578T breast, 42.7 µM. Also, the TGI in the experiment on SF-295 CNS is 49.9 µM; in the experiment with HCT-116 colon it was 16.5 µM; in the experiment with MALME-3M melanoma, 43.7 µM; with NCI/ADR-RES ovarian, 38.7 µM.
Turning to `c1ccc([P+](c2ccccc2)(c2ccccc2)c2ccc([P+](c3ccccc3)(c3ccccc3)c3ccccc3)cc2)cc1`, the TGI in the experiment on UACC-62 melanoma, in the experiment on SW-620 colon, in the experiment with LOX IMVI melanoma, in the experiment with A498 renal, in the experiment with T-47D breast and in the experiment on HS 578T breast was above 100 µM in each case. In addition, the TGI in the experiment on SF-295 CNS, in the experiment on HCT-116 colon, in the experiment on MALME-3M melanoma and in the experiment with NCI/ADR-RES ovarian was above 100 µM throughout.
Regarding `CC(C)(C)OC(=O)N1CCc2c(n(C/C=C/c3ccccc3)[nH]c2=O)C1`, the TGI in the experiment on UACC-62 melanoma, with SW-620 colon, with LOX IMVI melanoma, in the experiment on A498 renal, in the experiment on T-47D breast and with HS 578T breast was above 100 µM in each case. For the same compound, the TGI with SF-295 CNS, in the experiment with HCT-116 colon, in the experiment on MALME-3M melanoma and in the experiment on NCI/ADR-RES ovarian was above 100 µM throughout.
For the compound `COC(=O)c1ccc(/C=C2\CCc3ccccc3C2=O)cc1`, the TGI with UACC-62 melanoma, with SW-620 colon, in the experiment with LOX IMVI melanoma, in the experiment with A498 renal, in the experiment with T-47D breast and in the experiment on HS 578T breast was above 100 µM throughout. Besides, the TGI in the experiment on SF-295 CNS, with HCT-116 colon, with MALME-3M melanoma and with NCI/ADR-RES ovarian was above 100 µM throughout.
Take `O=S(=O)(O)C1CCC(O)C2[N-]CCCC21.O=S(=O)(O)C1CCC(O)C2[N-]CCCC21.[Zn+2]` (stereo not given): the TGI with UACC-62 melanoma, in the experiment with SW-620 colon, in the experiment on LOX IMVI melanoma, in the experiment with A498 renal, in the experiment with T-47D breast and in the experiment on HS 578T breast was above 100 µM each time. Further, the TGI in the experiment on SF-295 CNS, in the experiment with HCT-116 colon, in the experiment on MALME-3M melanoma and in the experiment on NCI/ADR-RES ovarian was above 100 µM each time.
